Measurements reported in patent US11213527B2, “Inhibitory effect of low molecular weight compound on cancer and fibrosis” (NATIONAL UNIVERSITY CORPORATION TOTTORI UNIVERSITY, priority 2014, dated 2022).

Assays:
cancer stem cells = settings: Fbxw7-deficient model mice; cited from earlier work
liver fibrosis = assay: Liver disease model mice (carbon tetrachloride-induced liver fibrosis); assay type: in vivo, C57BL/6 male mice; settings: glycyrrhizin 150 mg/kg, IC-2 10.6 or 21.2 mg/kg intraperitoneally 3 times a week for 4 weeks, vs vehicle
Description: First, 7-week-old C57BL/6 male mice (Japan SLC, Shizuoka, Japan) were subject to 1-week preparatory rearing. Among them, healthy mice were used. The mice were housed in an animal cage at a room temperature of 22±1° C. and a humidity of 50±5% throughout the preparatory rearing and experimental period and were given ad libitum access to food and water.
A microsyringe (ITO CORPORATION, Shizuoka, Japan) was used to intraperitoneally administer carbon tetrachloride (CCl4: Wako Pure Chemical Industries, Ltd., Osaka, Japan) at 0.2 ml/kg, 3 times a week, for 4, 6, or 8 weeks. Carbon tetrachloride was dissolved into cone oil (Wako Pure Chemical Industries, Ltd.) at a concentration of 10%. The resulting solution was used. After this carbon tetrachloride solution was administered for 4 weeks, the mice were divided into a vehicle administration group, a glycyrrhizin administration group, an ICG-001 administration group, and an IC-2 administration group. Then, a microsyringe was used to intraperitoneally administer, 3 times a week for 4 weeks, carbon tetrachloride and a drug solution prepared in accordance with the following process. Note that the carbon tetrachloride and the drug solution were alternately administered with one-day interval.
Glycyrrhizin (TOKYO CHEMICAL INDUSTRY CO., LTD., Tokyo, Japan) was dissolved in physiological saline. The solution was prepared at a concentration of 30 mg/ml while the pH was adjusted to 7.0 with 4 M NaOH liquid. IC-2 and ICG-001 (AdooQ BioScience, California, USA) were each dissolved in a WellSolve (Celeste Corporation, Tokyo, Japan) at a concentration of 40 mg/ml and 10 mg/ml, respectively. Next, the mixture was heated for 10 min in a hot water bath at 60° C. and was then completely dissolved. A 9-fold volume of physiological saline was added to the WellSolve solution in which the above drugs had each been dissolved. […] Note that an IC-2 dosage was determined on the basis of an effective concentration in vitro. […]

SMILES: Cc1ccc(NC(=O)c2ccc(CN3CCN(C)CC3)cc2)cc1Nc1nccc(-c2cccnc2)n1 [imatinib]
- killing of cancer stem cells (cancer stem cells): cancer stem cells were killed

SMILES: CC1(C)[C@@H](O[C@H]2O[C@H](C(=O)O)[C@@H](O)[C@H](O)[C@H]2O[C@@H]2O[C@H](C(=O)O)[C@@H](O)[C@H](O)[C@H]2O)CC[C@]2(C)[C@H]3C(=O)C=C4[C@@H]5C[C@@](C)(C(=O)O)CC[C@]5(C)CC[C@@]4(C)[C@]3(C)CC[C@@H]12 [glycyrrhizin, Glycyrrhizin, reference compound]
- content of hydroxyproline (liver fibrosis): reduced content of hydroxyproline
